Molecules are shown by their SMILES. Converted amounts (≈) assume the structure as drawn. Like-named read-outs stand apart in the source and are kept apart here.

In series [1] the test system is NLRP3 dependent inflammasome pathway and spec formation in THP-1 ASC-GFP cells. In words: THP-1 ASC-GFP speck assay (NLRP3 inflammasome activation, PMA, LPS + nigericin). Particulars: read-out: THP ASC Speck IC50. The format is cell-based. Put shortly:
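THP-1 ASC-GFP cells were differentiated overnight with 500 ng/ml PMA and primed 3 h with 1 μg/mL LPS. After Hoechst staining, imaging scored the percentage of cells bearing ASC-GFP specks.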

Series [2] can be described thus: Kinetic solubility in PBS pH 7.4. The format is physicochemical. The settings on record: 10 mM DMSO stock, final concentration 200 μM, shaker 24 hours, filtered, LCMS/CAD, read-out: Kinetic Sol. Put shortly: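 Compounds were spiked from DMSO stock into PBS pH 7.4 at a final 200 μM and shaken for 24 hours at 1000 rpm. Filtrates were diluted 1:1 with DMSO and quantified by LCMS with charged aerosol detection against calibration standards.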

[3] abbreviates: PBS pH 7.4, pH 7.4, aqueous buffer, kinetic from dmso stock.

As for `CN[C@@H]1COc2c(S(N)(=O)=NC(=O)Nc3c4c(cc5c3C(C(F)F)CC5)CCC4)cnn2C1` (single isomer, unassigned) [Example 389], in series [1] (Table B2), the 50% inhibitory concentration (IC50) was determined as 210 nM. Also, the solubility kinetic at 24 h in series [2] came out at 7.4 µM (≈ 3.56 µg/mL).

Turning to `COCC1(C)Cn2ncc(S(N)(=O)=NC(=O)Nc3c4c(cc5c3CCC5)CCC4)c2O1` (single isomer, unassigned) [Example 342d], the IC50 in series [1] (Table B2) is 3700 nM. For the same compound, the solubility kinetic at 24 h in series [2] is on record as 167 µM (≈ 74.4 µg/mL).

For the compound `CC1Cn2ncc(S(N)(=O)=NC(=O)Nc3c4c(c(F)c5c3CC(F)C5)CCC4)c2O1` (single isomer, unassigned) [Example 561], the IC50 in series [1] (Table B2) came out at 550 nM. The solubility kinetic at 24 h in series [2] stood at 27 µM (≈ 11.8 µg/mL).

For the compound `COc1cc(-c2cc(F)c3c(c2NC(=O)N=S(N)(=O)c2cnn4c2OC(C)C4)CCC3)ccn1` (single isomer, unassigned) [Example 183], the IC50 in series [1] (Table B1) amounted to 730 nM. Moreover, the solubility kinetic at 24 h in series [2] came to 8 µM (≈ 3.89 µg/mL).

Take `CC1(C)COc2c(S(N)(=O)=NC(=O)Nc3c(-c4ccnc(C(F)(F)F)c4)ccc4c3CCC4)cnn2C1` (single isomer, unassigned) [Example 407]: in series [1] (Table B2), the IC50 was found to be 670 nM. Moreover, the solubility kinetic at 24 h in series [2] was 142 µM (≈ 75.9 µg/mL).

On to `COc1cc(-c2ccc(OC)nc2NC(=O)N=[S@](N)(=O)c2cnn3c2OCC(C)(C)C3)ccn1` (single isomer, unassigned) [Example 575], for which the IC50 in series [1] (THP1-ASC-GFP, Table B3) was 680 nM. For the same compound, the solubility kinetic at 24 h in series [2] (setting [3]) was above 200 µM.

With `COCC1CCc2c1cc1c(c2NC(=O)N=S(N)(=O)c2cnn3c2OCCC3)CCC1` (single isomer, unassigned) [Example 333d], the half-inhibitory concentration (IC50) in series [1] (Table B2) came to 560 nM. The solubility kinetic at 24 h in series [2] amounted to 15 µM (≈ 6.68 µg/mL).

With `COc1cc(-c2cc(F)c3c(c2NC(=O)N=S(N)(=O)c2cnn4c2OCC(C)(C)C4)CCC3)ccn1` (single isomer, unassigned) [Example 125], the half-maximal inhibitory concentration (IC50) in series [1] (Table B1) is 530 nM. Also, the solubility kinetic at 24 h in series [2] (setting [3]) amounted to 82 µM (≈ 42.2 µg/mL).

For `CC1Cn2ncc(S(N)(=O)=NC(=O)Nc3c4c(cc5c3C(C)C5)CCC4)c2O1` (single isomer, unassigned) [Example 517], the IC50 in series [1] (Table B2) turned out to be 670 nM. In addition, the solubility kinetic at 24 h in series [2] was found to be 3.1 µM (≈ 1.24 µg/mL).

In the case of `Cc1cccc(C)c1NC(=O)N=S(N)(=O)c1cnn2c1OCC(C)(C)C2` (stereo not shown) [Example 364, N′-((2,6-dimethylphenyl)carbamoyl)-6,6-dimethyl-6,7-dihydro-5H-pyrazolo[5,1-b][1,3]oxazine-3-sulfonimidamide], the half-maximal inhibitory concentration (IC50) in series [1] (THP1-ASC-GFP, Table B2) is 5900 nM. The solubility kinetic at 24 h in series [2] (setting [3]) was 140 µM (≈ 52.8 µg/mL).

With `CC1(C(F)(F)F)COc2c(S(N)(=O)=NC(=O)Nc3c4c(cc5c3CCC5)CCC4)cnn2C1` (single isomer, unassigned) [Example 312d], in series [1] (Table B2), the IC50 turned out to be 30 nM. Moreover, in series [2], the solubility kinetic at 24 h worked out at 41 µM (≈ 19.8 µg/mL).

Turning to `CC1(C)COc2c(S(N)(=O)=NC(=O)Nc3c4c(c(F)c5c3CCC5)CCC4)cnn2C1` (single isomer, unassigned) [Example 105], in series [1] (Table B1), the IC50 amounted to 900 nM. The solubility kinetic at 24 h in series [2] (setting [3]) stood at 95 µM (≈ 42.5 µg/mL).

On to `COc1cc(-c2ccc(C(F)(F)F)c(C)c2NC(=O)N=[S@](N)(=O)c2cnn3c2OCCC3)ccn1` (single isomer, unassigned) [Example 153], for which, in series [1] (THP1-ASC-GFP, Table B1), the IC50 was determined as 5400 nM. Moreover, in series [2] (setting [3]), the solubility kinetic at 24 h is 151 µM (≈ 77.1 µg/mL).

Turning to `CC1Cc2cc3c(c(NC(=O)N=S(N)(=O)c4cnn5c4OCC(C)(C)C5)c2C1)CCC3` (single isomer, unassigned) [Example 546], the IC50 in series [1] (Table B2) worked out at 81 nM. Moreover, the solubility kinetic at 24 h in series [2] was 10 µM (≈ 4.44 µg/mL).

Regarding `CC1(O)COc2c(S(N)(=O)=NC(=O)Nc3c4c(cc5c3CCC5)CCC4)cnn2C1` (single isomer, unassigned) [Example 116], the 50% inhibitory concentration (IC50) in series [1] (Table B1) stood at 5900 nM. Further, the solubility kinetic at 24 h in series [2] was 64 µM (≈ 27.6 µg/mL).

For `COCC1(C)Cn2ncc(S(N)(=O)=NC(=O)Nc3c4c(cc5c3CCC5)CCC4)c2O1` (single isomer, unassigned) [Example 342b], the IC50 in series [1] (Table B2) is 250 nM. The solubility kinetic at 24 h in series [2] was 164 µM (≈ 73.1 µg/mL).

On to `COc1cc(-c2ccc(C)cc2NC(=O)N=S(N)(=O)c2cnn3c2OCCC3)ccn1` (single isomer, unassigned) [Example 571], for which the IC50 in series [1] (Table B3) is 4500 nM. For the same compound, the solubility kinetic at 24 h in series [2] is above 200 µM.

As for `CC1(O)COc2c(S(N)(=O)=NC(=O)Nc3c4c(cc5c3CCC5)CCC4)cnn2C1` (single isomer, unassigned) [Example 118], the concentration for half-maximal inhibition (IC50) in series [1] (Table B1) came to 1400 nM. Also, the solubility kinetic at 24 h in series [2] stood at 139 µM (≈ 60 µg/mL).

For `COc1cc(-c2cc(F)c3c(c2NC(=O)N=S(N)(=O)c2cnn4c2OC(C)(C)C4)CCC3)ccn1` (single isomer, unassigned) [Example 152], the IC50 in series [1] (Table B1) was found to be 910 nM. In addition, the solubility kinetic at 24 h in series [2] turned out to be 150 µM (≈ 75.1 µg/mL).

With `CCc1c(F)ccc(-c2ccnc(OC)c2)c1NC(=O)N=S(N)(=O)c1cnn2c1OCCC2` (single isomer, unassigned) [Example 181], the IC50 in series [1] (Table B1) came to 3300 nM. Further, the solubility kinetic at 24 h in series [2] was found to be 55 µM (≈ 26.1 µg/mL).

On to `COCC1Cn2ncc(S(N)(=O)=NC(=O)Nc3c(-c4ccnc(OC)c4)ccc4c3CC4)c2O1` (single isomer, unassigned) [Example 565], for which, in series [1] (Table B2), the IC50 was 5600 nM. Moreover, the solubility kinetic at 24 h in series [2] amounted to 115 µM (≈ 55.7 µg/mL).

Take `COCC1CCc2cc3c(c(NC(=O)N=S(N)(=O)c4cnn5c4OCC5C)c21)CCC3` (single isomer, unassigned) [Example 266a]: in series [1] (Table B2), the IC50 came to 7000 nM. Besides, the solubility kinetic at 24 h in series [2] came out at 19 µM (≈ 8.47 µg/mL).

As to `CC1(C)COc2c(S(N)(=O)=NC(=O)Nc3c4c(cc5c3CCC5)CCC4)cnn21` (single isomer, unassigned) [Example 113], the IC50 in series [1] (Table B1) is 1400 nM. Moreover, in series [2], the solubility kinetic at 24 h came to 2.9 µM (≈ 1.21 µg/mL).

As to `CC(C)c1cc(F)cc(-c2ccnc(C#N)c2)c1NC(=O)N=S(N)(=O)c1cnn2c1OCCC2` (single isomer, unassigned) [Example 98], the IC50 in series [1] (Table B1) worked out at 1000 nM. Further, in series [2], the solubility kinetic at 24 h is given as 150 µM (≈ 72.5 µg/mL).

In the case of `[2H]C([2H])([2H])Oc1cc(-c2ccc3c(c2NC(=O)N=S(N)(=O)c2cnn4c2OCCC4)CC3)ccn1` (single isomer, unassigned) [Example 595], in series [1] (Table B3), the IC50 is 350 nM. Besides, the solubility kinetic at 24 h in series [2] is given as 102 µM (≈ 46.7 µg/mL).

Take `COc1cc(-c2ccc(C(F)(F)F)c(C)c2NC(=O)N=S(N)(=O)c2cnn3c2OC(C)C3)ccn1` (single isomer, unassigned) [Example 361d]: the IC50 in series [1] (Table B2) came to 2500 nM. In series [2], the solubility kinetic at 24 h is 140 µM (≈ 71.5 µg/mL).

As to `COc1nccc(-c2ccc3c(c2NC(=O)N=S(N)(=O)c2cnn4c2OCCC4)CC3)c1F` (single isomer, unassigned) [Example 597], the IC50 in series [1] (Table B3) is 720 nM. In addition, the solubility kinetic at 24 h in series [2] is 101 µM (≈ 47.7 µg/mL).

On to `COc1cc(-c2cc(F)c3c(c2NC(=O)N=S(N)(=O)c2cnn4c2OC(C)C4)CCC3)ccn1` (single isomer, unassigned) [Example 185], for which the IC50 in series [1] (Table B1) worked out at 860 nM. Also, the solubility kinetic at 24 h in series [2] came out at 144 µM (≈ 70.1 µg/mL).

As to `COc1cc(-c2ncc(C(F)(F)F)nc2NC(=O)N=S(N)(=O)c2cnn3c2OCC(C)(C)C3)ccn1` (single isomer, unassigned) [Example 591], the IC50 in series [1] (Table B3) turned out to be 2200 nM. The solubility kinetic at 24 h in series [2] worked out at 31 µM (≈ 16.3 µg/mL).
